From PMC7373191, “Escherichia coli K-12 Lacks a High-Affinity Assimilatory Cysteine Importer” (mBio, 2020)
One block for each molecule: values may come before it.

Assays:
Type in all cases: cell-based, Escherichia coli
(UniProt P04816+P0AD96) [1] = target: T1, (UniProt P04816+P0AD96); experiment: inhibition of […]leucine uptake into whole cells, filtration; conditions: read-out: 50% inhibition
T1 construct: gene livJ; native chromosomal ABC importer in whole cells; other candidate importers deleted
T1 sequence (P22731 whole entry, one chain of several): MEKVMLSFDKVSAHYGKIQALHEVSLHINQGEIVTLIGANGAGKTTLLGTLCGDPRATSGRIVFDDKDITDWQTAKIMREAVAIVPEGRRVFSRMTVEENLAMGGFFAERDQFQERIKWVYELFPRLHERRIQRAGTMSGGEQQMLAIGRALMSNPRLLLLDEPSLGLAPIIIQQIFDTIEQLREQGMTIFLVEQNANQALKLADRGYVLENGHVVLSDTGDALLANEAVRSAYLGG
T1 sequence (P0AEX7 whole entry, one chain of several, further chain): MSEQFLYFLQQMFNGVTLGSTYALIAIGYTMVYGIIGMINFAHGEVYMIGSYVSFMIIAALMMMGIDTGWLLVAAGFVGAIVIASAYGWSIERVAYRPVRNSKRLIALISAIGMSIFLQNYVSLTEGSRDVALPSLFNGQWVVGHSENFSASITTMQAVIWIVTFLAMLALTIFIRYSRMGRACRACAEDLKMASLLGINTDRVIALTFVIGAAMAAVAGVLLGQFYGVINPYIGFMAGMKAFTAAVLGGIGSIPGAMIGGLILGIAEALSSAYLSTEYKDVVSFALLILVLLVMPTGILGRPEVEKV
T1 sequence (P22729 whole entry, one chain of several, further chain): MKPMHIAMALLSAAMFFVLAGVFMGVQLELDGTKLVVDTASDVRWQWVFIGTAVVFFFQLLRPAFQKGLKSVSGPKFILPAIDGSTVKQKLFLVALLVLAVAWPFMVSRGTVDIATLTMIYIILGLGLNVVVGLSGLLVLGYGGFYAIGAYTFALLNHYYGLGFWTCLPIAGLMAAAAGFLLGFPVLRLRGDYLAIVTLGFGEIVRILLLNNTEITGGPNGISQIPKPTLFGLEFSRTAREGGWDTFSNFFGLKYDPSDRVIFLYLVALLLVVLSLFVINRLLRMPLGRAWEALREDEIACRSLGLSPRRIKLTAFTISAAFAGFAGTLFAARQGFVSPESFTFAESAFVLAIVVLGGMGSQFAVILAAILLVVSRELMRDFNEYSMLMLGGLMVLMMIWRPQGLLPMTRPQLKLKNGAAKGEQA
T1 sequence (P0A9S7 whole entry, one chain of several, further chain): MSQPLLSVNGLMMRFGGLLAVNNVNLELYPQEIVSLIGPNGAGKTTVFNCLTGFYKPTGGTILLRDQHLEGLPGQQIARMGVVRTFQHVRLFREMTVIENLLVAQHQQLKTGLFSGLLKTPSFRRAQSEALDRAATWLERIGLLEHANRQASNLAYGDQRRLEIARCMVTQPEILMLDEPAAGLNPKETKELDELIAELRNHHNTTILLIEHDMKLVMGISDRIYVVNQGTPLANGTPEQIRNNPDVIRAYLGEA

(UniProt P04816+P0AD96) [2] = target: T1, (UniProt P04816+P0AD96); experiment: inhibition of […]cysteine uptake into whole cells, filtration; conditions: read-out: 50% inhibition
[3] = substrate: N[C@@H](CS)C(=O)O; experiment: cells, lysate or membranes; conditions: strain ZYD214, no other amino acids, 93-s time point, 37 °C, minimal glucose medium pH 7.0, DTPA and chloramphenicol, labelled compound

IC50 ((UniProt P04816+P0AD96) [1]): ~400 µM
Molecule: N[C@@H](CS)C(=O)O [cysteine]

IC50 ((UniProt P04816+P0AD96) [2]): ~2 µM
Molecule: CC(C)C[C@H](N)C(=O)O [leucine]

B1: LIV system (LivJ/LivKHMGF) (Escherichia coli K-12) (protein)
chain 1: EDIKVAVVGAMSGPVAQYGDQEFTGAEQAVADINAKGGIKGNKLQIVKYDDACDPKQAVAVANKVVNDGIKYVIGHLCSSSTQPASDIYEDEGILMITPAATAPELTARGYQLILRTTGLDSDQGPTAAKYILEKVKPQRIAIVHDKQQYGEGLARAVQDGLKKGNANVVFFDGITAGEKDFSTLVARLKKENIDFVYYGGYHPEMGQILRQARAAGLKTQFMGPEGVANVSLSNIAGESAEGLLVTKPKNYDQVPANKPIVDAIKAKKQDPSGAFVWTTYAALQSLQAGLNQSDDPAEIAKYLKANSVDTVMGPLTWDEKGDLKGFEFGVFDWHANGTATDAK
chain 2: DDIKVAVVGAMSGPIAQWGDMEFNGARQAIKDINAKGGIKGDKLVGVEYDDACDPKQAVAVANKIVNDGIKYVIGHLCSSSTQPASDIYEDEGILMISPGATNPELTQRGYQHIMRTAGLDSSQGPTAAKYILETVKPQRIAIIHDKQQYGEGLARSVQDGLKAANANVVFFDGITAGEKDFSALIARLKKENIDFVYYGGYYPEMGQMLRQARSVGLKTQFMGPEGVGNASLSNIAGDAAEGMLVTMPKRYDQDPANQGIVDALKADKKDPSGPYVWITYAAVQSLATALERTGSDEPLALVKDLKANGANTVIGPLNWDEKGDLKGFDFGVFQWHADGSSTAAK
notes: native chromosomal ABC importer in whole cells; other candidate importers deleted
Km [3]: 20 µM
